Data: patent US20170151200A1, “PROPHYLACTIC OR THERAPEUTIC AGENT FOR IDIOPATHIC INFLAMMATORY MYOPATHIES” (EA Pharma Co., Ltd., priority 2012, published 2017)

Assays:
[1] = test system: patients with polymyositis, dermatomyositis and inclusion body myositis; details: cited from earlier work
[2] = test system: C-protein-induced mouse myositis model (CIM mouse); test: Sectional area of fast muscle fiber (MHC IIB-positive) of triceps in CIM mouse; assay type: in vivo; details: triceps 21 days after immunization, 0.75 g/kg BCAA or 20 mg/kg PSL oral, histogram shift toward the left side = atrophy, FIG. 4
Description: (§1) Using C-protein-induced mouse myositis model (C-protein-induced Myositis: CIM), the effect of BCAA on the inflammation of muscular tissues was examined. For antigen immunization of C57BL/6 mouse (female, 8-week-old), an adjuvant containing 200 μg C-protein and 100 μg killed tuberculosis bacterium (Mycobacterium butyricum), and Complete Freund's adjuvant (CFA) as a component was intradermally injected to the hindpaw sole and tail base, C-protein-free CFA injected to the base of forelimb, and 0.25 μg pertussis toxin was intraperitoneally injected. As an adjuvant control without immunization with an antigen, CFA was intradermally injected to the same sites. […] After 21 days from immunization, the muscle was collected, and the levels of inflammation of quadriceps and flexor muscles were evaluated by the inflammation score.
Since steroid myopathy is predominantly developed in the fast muscle fiber (MHC IIB-positive fiber), atrophy of the muscle fiber of the CIM mouse was evaluated by measuring the sectional area of the muscle fiber. The boundary area of the fast muscle fiber and the muscle fiber of the section of the triceps collected 21 days after the immunization was labeled by immune fluorescent staining using anti-MHC IIB antibody and anti-Laminin antibody (Sigma), and the sectional area of the MHC IIB-positive muscle fiber was measured using Image J software (NIH). […]

[3] = test system: C-protein-induced mouse myositis model (CIM mouse); test: Forelimb muscle strength by grip dynamometer in CIM mouse; assay type: in vivo; details: 20 days after immunization
Description: as §1
After 20 days from immunization, the muscle strength of the forelimb of each mouse was measured by a veterinary grip dynamometer MK-380CM/R (Muromachi Kikai Co., Ltd.). The measurement was performed 6 times for each animal, and the average thereof was determined. […]
The muscle strength of the forelimb of each mouse was measured after 20 days from the immunization in Example 5 using veterinary grip dynamometer MK-380CM/R (Muromachi Kikai Co., Ltd.). The measurement was performed 6 times for each animal, and the average thereof was determined.

[4] = test system: C-protein-induced mouse myositis model (CIM mouse); test: Inflammation score of muscular tissue in C-protein-induced mouse myositis model (CIM); assay type: in vivo; details: 0.75 g/kg BCAA or 20 mg/kg PSL oral consecutively from 3 days after immunization, 21 days after immunization, vs Vehicle group, FIG. 1
Description: Using C-protein-induced mouse myositis model (C-protein-induced Myositis: CIM), the effect of BCAA on the inflammation of muscular tissues was examined. For antigen immunization of C57BL/6 mouse (female, 8-week-old), an adjuvant containing 200 μg C-protein and 100 μg killed tuberculosis bacterium (Mycobacterium butyricum), and Complete Freund's adjuvant (CFA) as a component was intradermally injected to the hindpaw sole and tail base, C-protein-free CFA injected to the base of forelimb, and 0.25 μg pertussis toxin was intraperitoneally injected. As an adjuvant control without immunization with an antigen, CFA was intradermally injected to the same sites. From three days after immunization, 0.75 g/kg BCAA (mixture of isoleucine, leucine and valine at a weight ratio of isoleucine:leucine:valine=1:2:1.2) or 20 mg/kg Prednisolone (PSL) was orally administered consecutively, and they were used as the BCAA administration group and the PSL administration group, respectively. In addition, 0.5% methylcellulose and 5% gamma cyclodextrin were orally administered instead of BCAA and the like to give the Vehicle administration group. After 21 days from immunization, the muscle was collected, and the levels of inflammation of quadriceps and flexor muscles were evaluated by the inflammation score. […]

[5] = test system: C-protein-induced mouse myositis model (CIM mouse); test: Muscle weight (quadriceps, hamstring/flexor muscles, triceps) in CIM mouse; assay type: in vivo; details: 21 days after immunization
Description: as §1
Quadriceps, flexor muscles and triceps were collected from the CIM mouse and control mouse (Ctrl) after 21 days from immunization, and the muscle weight was measured. […]
Quadriceps, hamstrings, and triceps were collected from the CIM mouse and control mouse (Ctrl) of Example 5 after 21 days from the immunization, and the muscle weight was measured.

With “Infliximab: anti-TNF antibody effective for rheumatoid arthritis” as the molecule, how does the “effect on inflammation in patients” value ([1]; patients with polymyositis, dermatomyositis and inclusion body myositis, Ann Rheum Dis. 2008;67(12):1670-7) read?
The value was “aggravation of inflammation and activation of type I interferons”.

Which “distribution of fast muscle fiber sectional area (muscle fiber atrophy)” value [2] does the source give for `C[C@]12C=CC(=O)C=C1CC[C@@H]1[C@@H]2[C@@H](O)C[C@@]2(C)[C@H]1CC[C@]2(O)C(=O)CO` [PSL, Prednisolone] here?
Its value is “tendency was stronger”.

What about the “strength of the forelimb muscle” value ([3]; CIM mouse of Example 5, 0.25, 0.75 or 2.25 g/kg BCAA + 20 mg/kg PSL, or 20 mg/kg PSL alone, oral, FIG. 7) of the same molecule?
The value was “did not increase”.

What about the “muscle strength of the forelimb” value ([3]; CIM mouse, 0.75 g/kg BCAA or 20 mg/kg PSL oral, FIG. 3) of the same molecule?
Its value is “improvement effect was weak”.

What about the inflammation score [4] of the same molecule?
The inflammation score was “significantly suppressed”.

And the muscle weight ([5]; CIM mouse of Example 5, 0.25, 0.75 or 2.25 g/kg BCAA + 20 mg/kg PSL, or 20 mg/kg PSL alone, oral, FIG. 6)?
The muscle weight was “did not increase”.

What about the muscle weight ([5]; CIM mouse, 0.75 g/kg BCAA or 20 mg/kg PSL oral, quadriceps, flexor muscles, triceps, FIG. 2) of the same molecule?
The muscle weight was “did not show improvement”.

For Anakinra: IL-1 receptor antagonist, which anti-inflammatory effect ([1]; polymyositis and dermatomyositis, Ann Rheum Dis. 2011;70:A80-A81) is on record?
The anti-inflammatory effect was “has not been observed”.
